Assay results reported in ChEMBL document CHEMBL1201862, “PubChem BioAssay data set” (2004).
The source made the active and inactive calls.

How the values were obtained:
[1] = Luminescence Cell-Based Dose Confirmation HTS to Identify Activators of 5'UTR Stem-Loop Driven Alpha-Synuclein mRNA Translation in H4 Neuroglioblastoma Cells. [Related pubchem assays: 1829 (Project Summary), 1814 (Primary HTS)]; format: functional
[2] = system: H4; test: Luminescence Cell-Based Dose Response HTS to Identify Activators of 5'UTR Stem-Loop Driven Prion Protein mRNA Translation in H4 Neuroglioblastoma Cells. [Related pubchem assays: 1829 (Project Summary), 1814 (Primary HTS)]; format: functional; settings: Homo sapiens
[3] = Luminescence Cell-Based Dose Response HTS to Identify Activators of Luciferase Translation or Activity in H4 […] Cells. [Related pubchem assays: 1829 (Project Summary), 1814 (Primary HTS)]; format: functional
[4] = target: Cytochrome P450 2C19 (Homo sapiens, UniProt P33261); test: Cytochrome panel assay with activity outcomes. Panel member name: p450-cyp2c19 Compounds with AC50 equal or less than 10 uM are considered active; format: functional; settings: read-out: AC50
Chain of Cytochrome P450 2C19 (P33261 whole entry): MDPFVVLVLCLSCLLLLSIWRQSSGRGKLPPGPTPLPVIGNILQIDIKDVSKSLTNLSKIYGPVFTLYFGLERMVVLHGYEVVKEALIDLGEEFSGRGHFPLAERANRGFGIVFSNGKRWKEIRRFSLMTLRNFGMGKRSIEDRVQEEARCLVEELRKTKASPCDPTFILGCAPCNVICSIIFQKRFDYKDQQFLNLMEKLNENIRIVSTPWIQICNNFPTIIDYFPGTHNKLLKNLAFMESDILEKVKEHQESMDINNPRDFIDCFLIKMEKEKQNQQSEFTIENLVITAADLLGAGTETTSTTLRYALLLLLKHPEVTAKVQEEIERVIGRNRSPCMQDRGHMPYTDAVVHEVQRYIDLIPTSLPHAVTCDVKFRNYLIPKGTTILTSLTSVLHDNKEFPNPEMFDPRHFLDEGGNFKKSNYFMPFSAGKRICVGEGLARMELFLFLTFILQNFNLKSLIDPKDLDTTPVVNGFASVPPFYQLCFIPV

[5] = target: T1, Heat shock factor protein 1 (Mus musculus, UniProt P38532); test: inhibition of MG132-induced HSE-luciferase signal, confirmation, cell-based, NIH3T3, luminescence, dose retest (AID 2382); format: functional;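 also: NIH3T3 fibroblasts with HSF1-driven luciferase reporter stressed by proteasome inhibitor MG132; luminescence from HSF1-driven luciferase expression after 8 hours of MG132 stress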
T1 sequence (P38532 whole entry): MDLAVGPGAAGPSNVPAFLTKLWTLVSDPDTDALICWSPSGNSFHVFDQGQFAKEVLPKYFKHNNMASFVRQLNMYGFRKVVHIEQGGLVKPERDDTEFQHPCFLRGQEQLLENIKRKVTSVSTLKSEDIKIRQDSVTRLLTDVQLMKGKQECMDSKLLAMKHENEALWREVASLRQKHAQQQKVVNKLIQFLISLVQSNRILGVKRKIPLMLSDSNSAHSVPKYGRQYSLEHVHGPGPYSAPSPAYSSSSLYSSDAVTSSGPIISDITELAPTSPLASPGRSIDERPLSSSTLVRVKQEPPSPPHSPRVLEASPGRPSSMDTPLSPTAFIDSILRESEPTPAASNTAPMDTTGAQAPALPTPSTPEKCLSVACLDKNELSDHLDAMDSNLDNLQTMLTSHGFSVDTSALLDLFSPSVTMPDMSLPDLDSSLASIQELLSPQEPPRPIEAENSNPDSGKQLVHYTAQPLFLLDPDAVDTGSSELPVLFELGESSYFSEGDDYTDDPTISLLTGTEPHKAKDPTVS

[6] = target: T2, Cytochrome P450 1A2 (Homo sapiens, UniProt P05177);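 also: PubChem cytochrome P450 panel assay, CYP1A2 panel member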
T2 sequence (P05177 whole entry): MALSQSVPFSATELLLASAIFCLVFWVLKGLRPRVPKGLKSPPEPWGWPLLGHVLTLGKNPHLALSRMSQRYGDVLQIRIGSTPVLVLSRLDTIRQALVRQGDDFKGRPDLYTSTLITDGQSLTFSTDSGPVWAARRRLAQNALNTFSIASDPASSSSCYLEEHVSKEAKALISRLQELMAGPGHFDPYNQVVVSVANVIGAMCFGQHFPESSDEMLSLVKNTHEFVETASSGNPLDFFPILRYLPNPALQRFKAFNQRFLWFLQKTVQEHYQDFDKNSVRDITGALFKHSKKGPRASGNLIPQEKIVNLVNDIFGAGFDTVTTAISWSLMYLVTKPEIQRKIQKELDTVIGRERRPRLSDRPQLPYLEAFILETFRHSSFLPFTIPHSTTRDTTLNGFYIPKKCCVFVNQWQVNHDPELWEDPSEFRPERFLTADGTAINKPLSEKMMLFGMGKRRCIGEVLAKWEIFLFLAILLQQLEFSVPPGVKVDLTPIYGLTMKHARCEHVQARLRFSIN

[7] = target: Cytochrome P450 3A4 (Homo sapiens, UniProt P08684);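 also: CYP3A4 tested as one member of a cytochrome P450 panel screen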
Chain of Cytochrome P450 3A4 (P08684 whole entry): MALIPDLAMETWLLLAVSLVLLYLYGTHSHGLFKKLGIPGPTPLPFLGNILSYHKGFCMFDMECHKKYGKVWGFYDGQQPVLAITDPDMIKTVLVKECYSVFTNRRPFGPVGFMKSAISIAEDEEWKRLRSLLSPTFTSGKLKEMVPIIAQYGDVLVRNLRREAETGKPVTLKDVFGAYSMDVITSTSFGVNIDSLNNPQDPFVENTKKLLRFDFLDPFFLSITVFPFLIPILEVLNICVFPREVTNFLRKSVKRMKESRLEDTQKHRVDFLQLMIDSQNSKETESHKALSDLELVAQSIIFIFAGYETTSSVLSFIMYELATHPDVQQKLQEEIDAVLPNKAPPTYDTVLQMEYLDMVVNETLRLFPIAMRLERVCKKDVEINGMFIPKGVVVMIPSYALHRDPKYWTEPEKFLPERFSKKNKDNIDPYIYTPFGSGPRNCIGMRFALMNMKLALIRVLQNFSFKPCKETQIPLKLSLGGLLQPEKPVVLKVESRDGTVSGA

[8] = target: T3, Streptokinase A (Streptococcus pyogenes serotype M1, UniProt P10520); test: S. pyogenes streptokinase expression inhibitors, potency, dose response, plasminogen activation absorbance, OD405 (AID 1914); format: functional, Streptococcus pyogenes M1 GAS;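 also: secreted streptokinase activity via plasminogen activation per viability signal from cell pellet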
T3 sequence (P10520 whole entry): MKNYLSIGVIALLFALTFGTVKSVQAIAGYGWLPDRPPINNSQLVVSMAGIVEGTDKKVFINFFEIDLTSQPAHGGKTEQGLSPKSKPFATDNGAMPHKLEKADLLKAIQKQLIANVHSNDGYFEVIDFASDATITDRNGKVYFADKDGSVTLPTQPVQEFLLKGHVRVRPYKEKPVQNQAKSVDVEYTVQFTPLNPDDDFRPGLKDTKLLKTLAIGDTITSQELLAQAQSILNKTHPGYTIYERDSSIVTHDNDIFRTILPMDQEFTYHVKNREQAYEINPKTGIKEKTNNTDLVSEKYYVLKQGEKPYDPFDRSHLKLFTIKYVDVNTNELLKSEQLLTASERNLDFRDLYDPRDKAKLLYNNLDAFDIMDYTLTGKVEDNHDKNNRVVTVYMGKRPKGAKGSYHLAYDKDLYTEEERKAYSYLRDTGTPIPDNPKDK

[9] = Luminescence Cell-Based Dose Retest to Confirm Inhibitors of Cancer Stem Cells. [Related pubchem assays (depositor defined):AID2717, AID2721]; format: functional; settings: Homo sapiens
[10] = system: Streptococcus sp. 'group A'; test: growth inhibition of control SK(-) GAS strain, dose response, counter-screen for streptokinase expression inhibitor project, luminescence, kanamycin, BacTiterGlo, confirmation (AID 1900); format: functional, organism-based
[11] = system: Streptococcus; test: Group A Streptococcus viability loss, dose response, counter-screen for streptokinase expression inhibitor project, luminescence, BacTiterGlo (AID 1915); format: functional, organism-based;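 also: potency for reduction of bacterial viability or growth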
[12] = target: Cytochrome P450 2C9 (Homo sapiens, UniProt P11712)
Chain of Cytochrome P450 2C9 (P11712 whole entry): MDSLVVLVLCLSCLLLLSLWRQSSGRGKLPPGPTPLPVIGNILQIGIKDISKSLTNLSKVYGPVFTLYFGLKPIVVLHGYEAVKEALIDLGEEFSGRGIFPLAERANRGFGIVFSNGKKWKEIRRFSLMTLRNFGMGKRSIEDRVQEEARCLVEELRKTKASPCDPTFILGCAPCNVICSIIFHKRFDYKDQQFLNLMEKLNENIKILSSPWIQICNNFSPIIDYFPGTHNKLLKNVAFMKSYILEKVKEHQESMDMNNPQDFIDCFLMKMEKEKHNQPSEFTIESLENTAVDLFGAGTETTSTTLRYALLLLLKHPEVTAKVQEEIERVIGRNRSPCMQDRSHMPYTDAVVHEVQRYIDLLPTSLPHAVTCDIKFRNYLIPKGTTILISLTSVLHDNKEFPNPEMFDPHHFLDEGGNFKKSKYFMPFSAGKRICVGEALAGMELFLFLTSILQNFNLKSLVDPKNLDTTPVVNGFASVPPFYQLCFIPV

[13] = target: Polyadenylate-binding protein 1 (Homo sapiens, UniProt P11940); test: PABP1 MLLE–PAM2 binding inhibitor potency, dose response, biochemical, fluorescence polarization, FITC-PAM2 peptide (AID 602259); format: functional; settings: read-out: IC50_Mean
Chain of Polyadenylate-binding protein 1 (P11940 whole entry): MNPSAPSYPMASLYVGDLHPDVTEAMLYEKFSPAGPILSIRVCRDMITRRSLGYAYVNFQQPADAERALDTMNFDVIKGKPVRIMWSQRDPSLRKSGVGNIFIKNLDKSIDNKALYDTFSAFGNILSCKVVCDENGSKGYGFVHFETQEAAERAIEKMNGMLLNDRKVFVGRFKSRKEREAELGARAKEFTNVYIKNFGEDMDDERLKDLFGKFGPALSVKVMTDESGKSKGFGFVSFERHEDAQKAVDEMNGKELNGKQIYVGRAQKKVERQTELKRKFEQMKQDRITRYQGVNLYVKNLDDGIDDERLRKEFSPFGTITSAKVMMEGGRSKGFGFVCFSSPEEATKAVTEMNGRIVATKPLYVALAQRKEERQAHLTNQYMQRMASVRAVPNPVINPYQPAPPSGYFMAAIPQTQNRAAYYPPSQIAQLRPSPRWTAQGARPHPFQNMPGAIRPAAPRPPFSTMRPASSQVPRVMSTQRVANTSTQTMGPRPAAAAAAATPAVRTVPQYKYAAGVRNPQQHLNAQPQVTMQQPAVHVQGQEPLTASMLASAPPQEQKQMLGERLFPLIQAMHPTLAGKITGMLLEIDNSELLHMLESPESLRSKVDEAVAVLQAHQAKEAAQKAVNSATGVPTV

CCOC(=O)c1ccc(N[S+]([O-])C23CC4CC(CC(C4)C2)C3)cc1 (stereo not drawn)
EC50 [1]: > 120 µM (not active) | EC50 [2]: > 120 µM (not active) | EC50 [3]: > 120 µM (not active)

COc1ccc(-n2c(=O)c(-c3cc(F)cc(F)c3)nc3cncnc32)cc1
AC50 [4]: 10 µM (inconclusive)

COc1ccc(/C=N/Nc2nc(C)cc(O)n2)cc1OC
EC50 [5]: 29.8 µM (active)

C[C@](N)(COP(=O)(O)O)C(=O)O
AC50 [4]: 25.1 µM (inconclusive) | AC50 [6]: 31.6 µM (inconclusive)

COc1ccc(COC(=O)N/N=C2/C[C@@H](O)[C@@H](O)[C@@H]3[C@H]4C(=O)N(c5ccc(F)cc5F)C(=O)[C@@H]4CC[C@@H]23)cc1
AC50 [7]: 3.16 µM (inconclusive)

COC(=O)c1ccc2ccn(CC(=O)NC3CCCCC3)c2c1
AC50 [7]: 4.47 µM (inconclusive)

Cn1c(S)nnc1CCCOc1ccc(Cl)cc1Cl
EC50 [1]: > 120 µM (not active) | EC50 [2]: 7.51 µM (active) | EC50 [3]: 22.5 µM (active)

COc1ccc(-n2c(S)nnc2COc2cccc(C)c2)cc1
EC50 [5]: > 195 µM (not active)

Cc1ccc(C)c(-c2csc(N)c2C(=O)OC(C)C)c1
EC50 [8]: 17 µM (active) | AC50 [9]: 6.66 µM (active) | EC50 [10]: 9.04 µM (active) | EC50 [11]: > 150 µM (not active)

COc1ccc(-n2c(=O)c(C)nc3cncnc32)cc1
AC50 [12]: 39.8 µM (inconclusive)

Cc1ccc(C2N(c3ccccc3)C(=S)N3CCCN23)cc1 (stereo not drawn)
EC50 [5]: > 195 µM (not active)

CCn1ccc(C(=O)NC2=C(C#N)CCC2)n1
AC50 [12]: 14.1 µM (inconclusive)

O=C(c1cnsn1)N1CCC(CO)(Cc2cccc(F)c2)CC1
EC50 [1]: 14.8 µM (active) | EC50 [2]: 75.8 µM (active) | EC50 [3]: 15.2 µM (active)

Cc1ccc(N2CCN(C(=O)c3cn(CC4CCCCC4)nn3)C(C)C2)cc1 (stereo not drawn)
EC50 [1]: 2.49 µM (active) | EC50 [3]: 0.418 µM (active)

CC(C)Sc1nc2sccc2c(=O)n1-c1ccccc1
EC50 [5]: > 195 µM (not active)

O=C1C(Cl)=C(NCC2CCCO2)C(=O)N1CCc1ccccc1 (stereo not drawn)
EC50 [1]: 12.9 µM (active) | EC50 [2]: 13.1 µM (active) | EC50 [3]: 15.4 µM (active)

O=C1NCCN1Cc1cccc(Cl)c1
AC50 [4]: 2.24 µM (inconclusive) | AC50 [12]: 2.24 µM (inconclusive)

CCOc1c2ccc(C(=O)NCCc3cccs3)cc2nn1CC
EC50 [2]: > 120 µM (not active) | AC50 [4]: 4.47 µM (inconclusive) | AC50 [12]: 28.2 µM (inconclusive) | EC50 [3]: 1.51 µM (active)

COc1ccc(NC(=O)N2CCCC3(CCN(C(=O)Oc4ccccc4)CC3)C2)cc1
AC50 [12]: 1.58 µM (inconclusive)

NNC(=O)CNC(=O)CNS(=O)(=O)c1ccccc1
EC50 [5]: > 195 µM (not active)

C/C(=N\NC(=O)CSc1[nH]c(C)nc1[N+](=O)[O-])c1ccc(F)cc1
EC50 [8]: > 150 µM (not active) | EC50 [1]: 15 µM (active) | EC50 [2]: 97.5 µM (active) | EC50 [10]: > 150 µM (not active) | EC50 [3]: 14.3 µM (active) | EC50 [11]: > 150 µM (not active)

COc1ccc(NC(=O)Nc2ccc([N+](=O)[O-])cc2)cn1
IC50 [13]: 42.1 µM (inactive)

COC(=O)[C@@H]1C[C@H]1[C@@H](NC(=O)c1ccccc1)c1ccccc1
AC50 [12]: 39.8 µM (inconclusive)

CCN1CCN(c2cc3c(nn2)Oc2ccccc2N3C)CC1
EC50 [1]: 11.4 µM (active) | EC50 [2]: 0.573 µM (active) | EC50 [3]: 44.6 µM (active)
